Reference: ChEMBL document CHEMBL1157603, “Structural insights into the design of small molecule inhibitors that selectively antagonize Mcl-1” (J Med Chem, 2010)

Experiments:
[1] = target: T1, Induced myeloid leukemia cell differentiation protein Mcl-1 (Homo sapiens, UniProt Q07820); test: Displacement of fluorescein-labeled Bak-BH3 peptide from human Mcl1 by fluorescence polarization assay
[2] = target: T1, Induced myeloid leukemia cell differentiation protein Mcl-1; test: Binding affinity to human Mcl1 by isothermal titration calorimetry
Bcl-2-like protein 1 [3] = target: T2, Bcl-2-like protein 1 (Homo sapiens, UniProt Q07817); test: Displacement of fluorescein-labeled Bak-BH3 peptide from human Bcl-XL by fluorescence polarization assay
T2 sequence (Q07817 whole entry): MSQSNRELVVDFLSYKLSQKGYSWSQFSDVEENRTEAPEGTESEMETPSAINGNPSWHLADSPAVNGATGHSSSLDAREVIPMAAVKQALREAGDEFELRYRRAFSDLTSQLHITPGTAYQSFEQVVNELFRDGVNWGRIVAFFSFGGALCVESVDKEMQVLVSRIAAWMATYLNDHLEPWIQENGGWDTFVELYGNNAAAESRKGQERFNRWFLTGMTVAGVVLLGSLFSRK

Bcl-2-like protein 1 [4] = target: T2, Bcl-2-like protein 1; test: Binding affinity to human Bcl-XL by isothermal titration calorimetry

T1 sequence (Q07820 whole entry): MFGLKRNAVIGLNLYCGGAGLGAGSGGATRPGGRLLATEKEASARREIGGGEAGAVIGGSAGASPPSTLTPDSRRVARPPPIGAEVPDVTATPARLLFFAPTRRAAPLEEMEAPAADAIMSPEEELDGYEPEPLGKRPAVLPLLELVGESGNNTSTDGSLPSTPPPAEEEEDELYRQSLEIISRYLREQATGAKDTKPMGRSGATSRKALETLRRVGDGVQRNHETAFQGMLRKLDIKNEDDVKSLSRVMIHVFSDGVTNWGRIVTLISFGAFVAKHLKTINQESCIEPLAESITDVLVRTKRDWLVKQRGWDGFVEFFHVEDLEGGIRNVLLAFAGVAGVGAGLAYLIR

SMILES | Ki [1] [µM] | Kd [2] [µM] | Ki (Bcl-2-like protein 1 [3]) [µM] | Kd (Bcl-2-like protein 1 [4]) [µM]
CC(C)C(C(=O)O)N1C(=O)/C(=C/c2ccc(Br)cc2)SC1=S (configuration not stated) | 44 | 84 | 10 | 8.7
COc1ccc(-c2ccc(/C=C3\SC(=S)N([C@@H](Cc4ccccc4)C(=O)O)C3=O)cn2)cc1OC | 8 | 10 | > 100 | > 750
COc1cccc(-c2ccc(/C=C3\SC(=S)N([C@@H](Cc4ccccc4)C(=O)O)C3=O)cn2)c1OC | 6.9 | 0.25 | 3.7 | 3.4
